Legend:
Type in all cases: cell-based
E. coli DH5α = assay: Antibacterial activity: MIC and growth curve against E. coli DH5α in 96-well plate; settings: minimal inhibitory concentration against E. coli DH5α; 96-well plate, 5×10^5 CFU/mL, 37° C., judged after 8 h
Summary of the method: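 Log-phase bacteria (OD600 ~0.5) resuspended in LB at 5×10^5 CFU/mL, exposed to recombinant protein at 50, 25, 12.5 μg/mL final in triplicate, 37 °C shaking at 175 rpm. OD600 read every 30 min; MIC is lowest concentration showing no growth.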

E. coli BL21 = assay: MIC against Gram-negative bacteria: E. coli BL21; settings: 5×10^5 CFU/mL
Summary of the method: (§1)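 Growth inhibition by human EGF domain proteins was scored in LB liquid culture seeded at 5×10^5 CFU/mL. Protein was applied as a two-fold dilution series in triplicate, with shaking incubation at 37° C; MIC is the lowest concentration giving no growth.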

Pseudomonas aeruginosa = assay: MIC against Gram-negative bacteria: Pseudomonas aeruginosa; settings: 5×10^5 CFU/mL
Summary of the method: as §1

Klebsiella pneumonia = assay: MIC against Gram-negative bacteria: Klebsiella pneumonia; settings: 5×10^5 CFU/mL
Summary of the method: as §1

Enterobacter cloacae = assay: MIC against Gram-negative bacteria: Enterobacter cloacae; settings: 5×10^5 CFU/mL
Summary of the method: as §1

Aeromonas hydrophila = assay: MIC against Gram-negative bacteria: Aeromonas hydrophila; settings: 5×10^5 CFU/mL
Summary of the method: as §1

Citrobacter diversus = assay: MIC against Gram-negative bacteria: Citrobacter diversus; settings: 5×10^5 CFU/mL
Summary of the method: as §1

Moraxella catarrhalis = assay: MIC against Gram-negative bacteria: Moraxella catarrhalis; settings: 5×10^5 CFU/mL
Summary of the method: as §1

Proteus mirabilis = assay: MIC against Gram-negative bacteria: Proteus mirabilis; settings: 5×10^5 CFU/mL
Summary of the method: as §1

Proteus vulgaris = assay: MIC against Gram-negative bacteria: Proteus vulgaris; settings: 5×10^5 CFU/mL
Summary of the method: as §1

Serratia marcescens = assay: MIC against Gram-negative bacteria: Serratia marcescens; settings: 5×10^5 CFU/mL
Summary of the method: as §1

[1] = E. coli BL21, 10 h cultivation at 37° C.
[2] = P. aeruginosa, 10 h cultivation at 37° C.
[3] = K. pneumonia, 10 h cultivation at 37° C.
[4] = E. cloacae, 10 h cultivation at 37° C.
[5] = A. hydrophila, 10 h cultivation at 37° C.
[6] = C. diversus, 10 h cultivation at 37° C.
[7] = M. catarrhalis, 10 h cultivation at 37° C.
[8] = P. mirabilis, 10 h cultivation at 37° C.
[9] = P. vulgaris, 10 h cultivation at 37° C.
[10] = S. marcescens, 10 h cultivation at 37° C.
[11] = 10 h cultivation at 37° C., two-fold serial dilution

In the case of “PRT1353 (SDMSCPNDCHQHGRCVNGMCVCDDGYTGEDCR; listed as Homo sapiens)”, the MIC (E. coli DH5α) is reported as 12.5 µg/mL, the “MIC against E. coli BL21” value (E. coli BL21; [1]) is reported as 25 µg/mL and the “MIC against P. aeruginosa” value (Pseudomonas aeruginosa; Pseudomonas aeruginosa, 10 h cultivation at 37° C.) is reported as 50 µg/mL. For the same substance, the “MIC against K. pneumonia” value (Klebsiella pneumonia; Klebsiella pneumonia, 10 h cultivation at 37° C.) was 25 µg/mL, the “MIC against E. cloacae” value (Enterobacter cloacae; Enterobacter cloacae, 10 h cultivation at 37° C.) was 12.5 µg/mL and the “MIC against A. hydrophila” value (Aeromonas hydrophila; Aeromonas hydrophila, 10 h cultivation at 37° C.) was 25 µg/mL. For the same substance, the “MIC against C. diversus” value (Citrobacter diversus; Citrobacter diversus, 10 h cultivation at 37° C.) was 50 µg/mL, the “MIC against M. catarrhalis” value (Moraxella catarrhalis; Moraxella catarrhalis, 10 h cultivation at 37° C.) was 25 µg/mL and the “MIC against P. mirabilis” value (Proteus mirabilis; Proteus mirabilis, 10 h cultivation at 37° C.) was 12.5 µg/mL. The “MIC against P. vulgaris” value (Proteus vulgaris; Proteus vulgaris, 10 h cultivation at 37° C.) was 25 µg/mL and the “MIC against S. marcescens” value (Serratia marcescens; Serratia marcescens, 10 h cultivation at 37° C.) was 50 µg/mL.

For “PRT173 (CSSSPCSNGAKCVDLGDAYLCRCQAGFSGRHC; listed as Homo sapiens)”, the MIC (E. coli DH5α) was 12.5 µg/mL, the “MIC (μg/mL) E. coli BL21” value (E. coli BL21; [1]) was 50 µg/mL and the “MIC (μg/mL) P. aeruginosa” value (Pseudomonas aeruginosa; [2]) was 12.5 µg/mL. The “MIC (μg/mL) K. pneumonia” value (Klebsiella pneumonia; [3]) was 50 µg/mL, the “MIC (μg/mL) E. cloacae” value (Enterobacter cloacae; [4]) was 25 µg/mL and the “MIC (μg/mL) A. hydrophila” value (Aeromonas hydrophila; [5]) was 12.5 µg/mL. The “MIC (μg/mL) C. diversus” value (Citrobacter diversus; [6]) was 25 µg/mL, the “MIC (μg/mL) M. catarrhalis” value (Moraxella catarrhalis; [7]) was 50 µg/mL and the “MIC (μg/mL) P. mirabilis” value (Proteus mirabilis; [8]) was 25 µg/mL. The “MIC (μg/mL) P. vulgaris” value (Proteus vulgaris; [9]) was 12.5 µg/mL and the “MIC (μg/mL) S. marcescens” value (Serratia marcescens; [10]) was 25 µg/mL.

In the case of “PRT549 (CDCSGNGDPNLLFSDCDPLTGACRGCLRHTTGPRCEICAPGFYGNALLPGNCTR; listed as Homo sapiens)”, the MIC (E. coli DH5α) is reported as 12.5 µg/mL, the “MIC against E. coli BL21” value (E. coli BL21; 96-well plate, 37° C., 10 h) is reported as 50 µg/mL and the “MIC against P. aeruginosa” value (Pseudomonas aeruginosa; 96-well plate, 37° C., 10 h) is reported as 12.5 µg/mL. The “MIC against K. pneumonia” value (Klebsiella pneumonia; 96-well plate, 37° C., 10 h) was 50 µg/mL, the “MIC against E. cloacae” value (Enterobacter cloacae; 96-well plate, 37° C., 10 h) was 12.5 µg/mL and the “MIC against A. hydrophila” value (Aeromonas hydrophila; 96-well plate, 37° C., 10 h) was 50 µg/mL. For the same substance, the “MIC against C. diversus” value (Citrobacter diversus; 96-well plate, 37° C., 10 h) was 12.5 µg/mL, the “MIC against M. catarrhalis” value (Moraxella catarrhalis; 96-well plate, 37° C., 10 h) was 25 µg/mL and the “MIC against P. mirabilis” value (Proteus mirabilis; 96-well plate, 37° C., 10 h) was 12.5 µg/mL. The “MIC against P. vulgaris” value (Proteus vulgaris; 96-well plate, 37° C., 10 h) was 25 µg/mL and the “MIC against S. marcescens” value (Serratia marcescens; 96-well plate, 37° C., 10 h) was 12.5 µg/mL.

For “PRT1193 (DANECEGKPCLNAFSCKNLIGGYYCDCIPGWKGINCH; listed as Homo sapiens)”, the MIC (E. coli DH5α) was 12.5 µg/mL, the “MIC E. coli BL21” value (E. coli BL21; [11]) was 12.5 µg/mL and the “MIC P. aeruginosa” value (Pseudomonas aeruginosa; [11]) was 12.5 µg/mL. For the same substance, the “MIC K. pneumonia” value (Klebsiella pneumonia; [11]) was 25 µg/mL, the “MIC E. cloacae” value (Enterobacter cloacae; [11]) was 12.5 µg/mL and the “MIC A. hydrophila” value (Aeromonas hydrophila; [11]) was 12.5 µg/mL. For the same substance, the “MIC C. diversus” value (Citrobacter diversus; [11]) was 25 µg/mL, the “MIC M. catarrhalis” value (Moraxella catarrhalis; [11]) was 12.5 µg/mL and the “MIC P. mirabilis” value (Proteus mirabilis; [11]) was 50 µg/mL. The “MIC P. vulgaris” value (Proteus vulgaris; [11]) was 25 µg/mL and the “MIC S. marcescens” value (Serratia marcescens; [11]) was 12.5 µg/mL.

For “PRT824 (YGPGCEQLCGCLNGGSCDAATGACRCPTGFLGTDCN; listed as Homo sapiens)”, the MIC (E. coli DH5α) was 12.5 µg/mL, the “MIC (μg/mL) E. coli BL21” value (E. coli BL21; [1]) was 25 µg/mL and the “MIC (μg/mL) P. aeruginosa” value (Pseudomonas aeruginosa; [2]) was 50 µg/mL. The “MIC (μg/mL) K. pneumonia” value (Klebsiella pneumonia; [3]) was 25 µg/mL, the “MIC (μg/mL) E. cloacae” value (Enterobacter cloacae; [4]) was 12.5 µg/mL and the “MIC (μg/mL) A. hydrophila” value (Aeromonas hydrophila; [5]) was 25 µg/mL. For the same substance, the “MIC (μg/mL) C. diversus” value (Citrobacter diversus; [6]) was 50 µg/mL, the “MIC (μg/mL) M. catarrhalis” value (Moraxella catarrhalis; [7]) was 25 µg/mL and the “MIC (μg/mL) P. mirabilis” value (Proteus mirabilis; [8]) was 12.5 µg/mL. The “MIC (μg/mL) P. vulgaris” value (Proteus vulgaris; [9]) was 50 µg/mL and the “MIC (μg/mL) S. marcescens” value (Serratia marcescens; [10]) was 25 µg/mL.

In the case of “PRT713 (GTNVCARDNGGCKQLCLYRGNSRRTCACAHGYLAEDGVTCL; listed as Homo sapiens)”, the MIC (E. coli DH5α) is reported as 50 µg/mL, the “MIC E. coli BL21” value (E. coli BL21; 96-well plate, 37° C., 10 h) is reported as 25 µg/mL and the “MIC P. aeruginosa” value (Pseudomonas aeruginosa; 96-well plate, 37° C., 10 h) is reported as 12.5 µg/mL. For the same substance, the “MIC K. pneumonia” value (Klebsiella pneumonia; 96-well plate, 37° C., 10 h) was 12.5 µg/mL, the “MIC E. cloacae” value (Enterobacter cloacae; 96-well plate, 37° C., 10 h) was 50 µg/mL and the “MIC A. hydrophila” value (Aeromonas hydrophila; 96-well plate, 37° C., 10 h) was 12.5 µg/mL. The “MIC C. diversus” value (Citrobacter diversus; 96-well plate, 37° C., 10 h) was 50 µg/mL, the “MIC M. catarrhalis” value (Moraxella catarrhalis; 96-well plate, 37° C., 10 h) was 12.5 µg/mL and the “MIC P. mirabilis” value (Proteus mirabilis; 96-well plate, 37° C., 10 h) was 50 µg/mL. For the same substance, the “MIC P. vulgaris” value (Proteus vulgaris; 96-well plate, 37° C., 10 h) was 12.5 µg/mL and the “MIC S. marcescens” value (Serratia marcescens; 96-well plate, 37° C., 10 h) was 50 µg/mL.

Substance “PRT429 (DVNECEAQRCSQECANIYGSYQCYCRQGYQLAEDGHTCT; listed as Homo sapiens)” has an MIC (E. coli DH5α) of 12.5 µg/mL, an MIC (E. coli BL21; [1]) of 12.5 µg/mL and an MIC (Pseudomonas aeruginosa; [2]) of 50 µg/mL. It also gave an MIC (Klebsiella pneumonia; [3]) of 12.5 µg/mL, an MIC (Enterobacter cloacae; [4]) of 50 µg/mL and an MIC (Aeromonas hydrophila; [5]) of 12.5 µg/mL. It also gave an MIC (Citrobacter diversus; [6]) of 50 µg/mL, an MIC (Moraxella catarrhalis; [7]) of 12.5 µg/mL and an MIC (Proteus mirabilis; [8]) of 25 µg/mL. For the same substance, the MIC (Proteus vulgaris; [9]) was 50 µg/mL and the MIC (Serratia marcescens; [10]) was 25 µg/mL.
